PMC9166630, “SAR Probing of KX2-391 Provided Analogues With Juxtaposed Activity Profile Against Major Oncogenic Kinases” (Frontiers in Oncology, 2022)
Where two headings read alike, the source gives them in different places.

How the values were obtained:
[1] = tested on: HCT116 cell line; test: MTT anti-proliferative assay, HCT116; assay type: cell-based, human; details: Homo sapiens, HCT-116, 72 h, maximum tested concentration 50 µM, read-out: IC50 ± SEM, HCT116
Description: The test compounds were evaluated for anti-proliferative activity using the MTT viability assay against HCT116 cell line. Cells were seeded in triplicate in 96-well plates at a density of 10x 10^3 cells/mL in a total volume of 200 µL per well. 0.1% of DMSO was used as a vehicle control. Each well was treated with 2 µL test compounds, which had been pre-prepared as stock solutions in […] to furnish the concentration range of study, 0.1 µM to 50 µM, and re-incubated for a further 72 h at 37°C in a humidified atmosphere containing 5% CO2. The culture medium was then removed, and the cells were washed with 100 µL PBS and 100 µL MTT was added, to reach a final concentration of 1 mg/mL MTT. Cells were incubated for 3 h in darkness at 37°C. After that, MTT solution was removed and MTT was solubilized by adding […] DMSO. The cells were maintained at room temperature in darkness for 20 min to ensure thorough color diffusion before reading the absorbance using a microplate reader at 570 nm. All experiments were conducted in triplicates. Results were expressed as percentage viability relative to vehicle control (100%). Dose response curves were plotted and IC50 values (concentration of drug resulting in 50% reduction in cell survival) were obtained using the commercial software package Prism (GraphPad Software, Inc., La Jolla, CA, USA).

[2] = tested on: MV4-11 leukemia cell line; test: CellTiter-Blue cell viability assay, MV4-11; assay type: cell-based; details: Homo sapiens, CellTiter-Blue, 48 h, maximum tested concentration 20 µM, read-out: IC50 ± SEM, MV4-11
Description: (§1) HL60, K562, MV4-11 and NB4 were purchased from CLS Cell Line Service GmbH (Eppelheim, Germany). All cell lines were cultured in RPMI-1640 medium supplemented with 10% fetal bovine serum (FBS) (Thermo Fisher Scientific) and 0.1% ciprofloxacin (2.5mg/ml; Cipla Limited; Mumbai, India), and were maintained at 37°C in the presence of 21% O2 and 5% CO2.
(§2) Cell viability was determined using the CellTiter®-Blue Cell Viability Assay kit (Promega, Madison, WI, USA). Approximately 10^4 cells were counted and plated in a 96-well plate in the presence of test compounds ranging from 0.01 to 10 or 20 µM in triplicate and were incubated for 48 h at 37°C in a humidified incubator. After the incubation period was complete, 20 µL of CellTiter®-Blue Cell Viability Assay reagent was added to each well and incubated for additional 2 h for the development of florescence. Florescence was measured at Ex/Em 540/590 on SpectraMax® i3 Multi-Mode microplate reader (Molecular Devices, LLC; San Jose, CA, USA) and plotted against drug concentration to determine the IC50 of the test compounds. The IC50 was obtained by non-linear regression model using GraphPad Prism 6.07 (GraphPad Software, Inc, USA).

[3] = tested on: K562 leukemia cell line; test: CellTiter-Blue cell viability assay, K562; assay type: cell-based; details: Homo sapiens, CellTiter-Blue, 48 h, maximum tested concentration 20 µM, read-out: IC50 ± SEM, K562
Description: as §1, §2

[4] = tested on: HL60 leukemia cell line; test: CellTiter-Blue cell viability assay, HL60; assay type: cell-based; details: Homo sapiens, HL-60; CellTiter-Blue, 48 h; maximum tested concentration 20 µM; read-out: IC50 ± SEM, HL60
Description: as §1, §2

[5] = tested on: NB4 leukemia cell line; test: CellTiter-Blue cell viability assay, NB4; assay type: cell-based, human; details: 48 h, CellTiter-Blue, 48 h, maximum tested concentration 20 µM, read-out: IC50 ± SEM, NB4
Description: as §1, §2

[6] = target: T1, CYP3A4 (Homo sapiens, UniProt P08684); test: Inhibition assay of human CYP450 enzymes, 3A4; assay type: in vitro ADME; details: for IC50: testosterone substrate; for no inhibition of CYP3A4 at concentrations up to: the values are: IC50
T1 construct: purchased Fisher Scientific; host or cells: insect cells (supersomes)
Description: (§3) The two compounds 4e and 4n were assessed for their ability to inhibit the three major human CYP450 enzymes, 3A4, 2D6 and 2C9. Assays were run in triplicate. Expressed enzymes in insect supersomes (Fisher Scientific, Waltham, MA) were used to minimize non-specific binding and membrane partitioning issues ([68]). The 3A4 assay uses testosterone as a substrate and analysis was performed by LC/MS/MS on a Waters Xevo TQ instrument as described above using positive electrospray ionization. Assay acceptance criteria was 20% for all standards and 25% for the LLOQ. The 2D6 and 2C9 assays use fluorescent substrates (3-[2-(N,N-diethylamino)ethyl]-7-methoxy-4-methylcoumarin for 2D6; 7-methoxy-4-(trifluoromethyl)coumarin for 2C9) and were analyzed on an Envision plate reader. GraphPad® Prism v 5.04 was used for nonlinear fitting of data to generate IC50 values.

[7] = target: T2, CYP2D6 (Homo sapiens, UniProt P10635); test: Inhibition assay of human CYP450 enzymes, 2D6; assay type: in vitro ADME; details: for IC50: fluorescent substrate; for no inhibition of CYP2D6 at concentrations up to: the values are: IC50
T2 construct: purchased Fisher Scientific; host or cells: insect cells (supersomes)
Description: as §3

[8] = target: T3, CYP2C9 (Homo sapiens, UniProt P11712); test: Inhibition assay of human CYP450 enzymes, 2C9; assay type: in vitro ADME; details: for IC50: fluorescent substrate; for no inhibition of CYP2C9 at concentrations up to: the values are: IC50
T3 construct: purchased Fisher Scientific; host or cells: insect cells (supersomes)
Description: as §3

[9] = Stability in mouse plasma; assay type: in vitro ADME; details: CD-1, mouse, pH 7.4, 37°C, read-out: Mouse Plasma Stability t1/2
Description: The assay was conducted at 37°C in triplicate. Test compounds or procaine (positive control) were tested at a final concentration of 1 µM in either 2.5% DMSO/CD-1 mouse plasma (Innovative Research, Novi, MI; sodium heparin added as anticoagulant; pH adjusted to 7.4 with 2N HCl on day of use) or 2.5% DMSO/PBS (pH 7.4: 136.9 mM NaCl, 2.68 mM KCl, 8.1 mM Na2HPO4, 1.47 mM KH2PO4, 0.9 mM CaCl2, 0.49 mM MgCl2). At seven time points, reaction mixture aliquots were transferred to 96-shallow well stop plates on ice containing acetonitrile with 0.1 µM propafenone. Samples were analyzed by LC/MS/MS on a Waters Xevo TQ instrument as described above using positive electrospray ionization. Assay acceptance criteria was 20% for all standards and 25% for the LLOQ. GraphPad® Prism v. 5.04 was used for nonlinear fitting of data to generate t1/2 values.

T2 sequence (P10635 whole entry): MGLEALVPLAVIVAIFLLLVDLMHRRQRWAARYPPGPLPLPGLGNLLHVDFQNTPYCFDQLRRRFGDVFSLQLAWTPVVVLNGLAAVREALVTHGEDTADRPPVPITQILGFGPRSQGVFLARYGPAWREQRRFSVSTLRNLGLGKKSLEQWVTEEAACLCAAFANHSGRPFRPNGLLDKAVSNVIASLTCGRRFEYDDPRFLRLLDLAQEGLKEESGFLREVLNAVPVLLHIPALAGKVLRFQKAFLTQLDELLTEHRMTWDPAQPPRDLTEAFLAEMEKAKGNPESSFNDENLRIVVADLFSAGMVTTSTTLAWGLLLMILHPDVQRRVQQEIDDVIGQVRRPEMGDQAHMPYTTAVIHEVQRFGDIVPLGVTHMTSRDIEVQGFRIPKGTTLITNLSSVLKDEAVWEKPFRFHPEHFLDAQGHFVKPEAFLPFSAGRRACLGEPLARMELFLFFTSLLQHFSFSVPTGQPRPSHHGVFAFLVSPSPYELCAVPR
T3 sequence (P11712 whole entry): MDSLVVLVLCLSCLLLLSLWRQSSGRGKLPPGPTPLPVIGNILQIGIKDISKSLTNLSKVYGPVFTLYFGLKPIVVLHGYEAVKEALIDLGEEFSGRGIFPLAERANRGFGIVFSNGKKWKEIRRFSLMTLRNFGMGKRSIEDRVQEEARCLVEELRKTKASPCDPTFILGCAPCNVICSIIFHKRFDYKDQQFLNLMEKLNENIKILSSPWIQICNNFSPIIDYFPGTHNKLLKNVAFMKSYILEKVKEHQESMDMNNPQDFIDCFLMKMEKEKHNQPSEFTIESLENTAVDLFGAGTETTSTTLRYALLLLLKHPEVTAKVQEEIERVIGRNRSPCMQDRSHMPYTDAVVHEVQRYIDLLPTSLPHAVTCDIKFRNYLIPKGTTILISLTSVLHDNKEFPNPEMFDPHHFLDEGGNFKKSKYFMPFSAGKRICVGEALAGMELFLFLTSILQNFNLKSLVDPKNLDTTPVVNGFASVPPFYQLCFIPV
T1 sequence (P08684 whole entry): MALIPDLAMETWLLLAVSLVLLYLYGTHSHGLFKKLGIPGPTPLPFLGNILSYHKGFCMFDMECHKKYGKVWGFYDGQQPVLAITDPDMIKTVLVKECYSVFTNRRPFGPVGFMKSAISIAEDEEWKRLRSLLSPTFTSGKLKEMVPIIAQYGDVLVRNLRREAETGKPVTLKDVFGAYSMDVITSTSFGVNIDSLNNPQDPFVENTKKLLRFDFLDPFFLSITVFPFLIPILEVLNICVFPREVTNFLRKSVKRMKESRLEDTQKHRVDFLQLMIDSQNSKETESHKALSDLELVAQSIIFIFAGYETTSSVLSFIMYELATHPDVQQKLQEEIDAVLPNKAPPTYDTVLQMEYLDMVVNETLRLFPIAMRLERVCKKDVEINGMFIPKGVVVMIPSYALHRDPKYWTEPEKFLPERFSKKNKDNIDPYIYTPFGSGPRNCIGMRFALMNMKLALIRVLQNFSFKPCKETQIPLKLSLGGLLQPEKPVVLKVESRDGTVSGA

| Compound | IC50 [1] [µM] | IC50 [2] [µM] | IC50 [3] [µM] | IC50 [4] [µM] | IC50 ([5]; Homo sapiens) [µM] | IC50 [6] [µM] | no inhibition of CYP3A4 at concentrations up to [6] [µM] | IC50 [7] [µM] | no inhibition of CYP2D6 at concentrations up to [7] [µM] | IC50 [8] [µM] | no inhibition of CYP2C9 at concentrations up to [8] [µM] | half-life at 1 µM [9] [h] | IC50 [5] [µM] |
| --- | --- | --- | --- | --- | --- | --- | --- | --- | --- | --- | --- | --- | --- |
| O=C(Cc1ccc(NC(=O)c2cccc(Cl)n2)cc1)NCc1ccccc1 [Compound 4n, N-(4-(2-(benzylamino)-2-oxoethyl)phenyl)-6-chloropicolinamide] | 10.8 | 1.96 ± 0.47 | 2.69 ± 0.65 | 2.22 ± 0.06 | 1.54 ± 0.66 | > 10 | > 10 | > 10 | > 10 | > 10 | > 10 | 2.97 | – |
| O=C(Cc1ccc(NC(=O)c2cccc(Cl)c2)cc1)NCc1ccccc1 [Compound 4e, N-(4-(2-(benzylamino)-2-oxoethyl)phenyl)-3-chlorobenzamide] | 16.8 ± 2.69 | 1.9 ± 0.08 | 4.23 ± 0.2 | 1.62 ± 0.13 | 0.96 | > 10 | > 10 | > 10 | > 10 | > 10 | > 10 | > 5 | 0.94 |
